The target of one experiment is T1, CK1α (Homo sapiens, UniProt P48729+Q96SW2).
T1 construct: CSNK1A1-HiBit KI HEK293(LgBit) Cells; host or cells: HEK293(LgBit) knock-in cells
The experiment in a line: HiBiT degradation assay, CK1α, Procedure A. The format is cell-based. The essentials:
(§1)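 Luminescence from HiBiT lytic detection reports remaining tagged protein after cells sit six hours at 37° C with compound across ten concentrations (10 μM down to 0.005 μM, 0.1% DMSO). A 4-parameter curve fit gives DC50 and Ymin.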
For orientation: HiBiT is a short tag that completes a luciferase, so light tracks the accessible tagged protein.

A further experiment concerns the target GSPT1 (Homo sapiens, UniProt P15170+Q96SW2). The experiment in a line: HiBiT degradation assay, GSPT1, Procedure A. In kind it is cell-based. Further details: HiBit-GSPT1 KI HEK293(LgBit) Cells; host or cells: HEK293(LgBit) knock-in cells. An outline of the steps: as §1

Molecules are shown by their SMILES.

As usually defined, the DC50 is the concentration giving 50% degradation. Read a high DC50 as degradation only at high concentration.

T1 sequence (P48729 whole entry): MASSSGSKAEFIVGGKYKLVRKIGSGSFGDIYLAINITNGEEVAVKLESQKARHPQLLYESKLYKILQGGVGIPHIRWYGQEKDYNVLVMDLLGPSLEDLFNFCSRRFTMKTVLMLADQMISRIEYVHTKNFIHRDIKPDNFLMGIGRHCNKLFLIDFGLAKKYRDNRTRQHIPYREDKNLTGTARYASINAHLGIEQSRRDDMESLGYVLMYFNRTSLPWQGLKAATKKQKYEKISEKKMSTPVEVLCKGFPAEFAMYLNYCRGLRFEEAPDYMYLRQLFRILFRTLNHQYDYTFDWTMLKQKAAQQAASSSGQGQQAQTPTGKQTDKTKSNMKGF
T1 sequence (Q96SW2 whole entry): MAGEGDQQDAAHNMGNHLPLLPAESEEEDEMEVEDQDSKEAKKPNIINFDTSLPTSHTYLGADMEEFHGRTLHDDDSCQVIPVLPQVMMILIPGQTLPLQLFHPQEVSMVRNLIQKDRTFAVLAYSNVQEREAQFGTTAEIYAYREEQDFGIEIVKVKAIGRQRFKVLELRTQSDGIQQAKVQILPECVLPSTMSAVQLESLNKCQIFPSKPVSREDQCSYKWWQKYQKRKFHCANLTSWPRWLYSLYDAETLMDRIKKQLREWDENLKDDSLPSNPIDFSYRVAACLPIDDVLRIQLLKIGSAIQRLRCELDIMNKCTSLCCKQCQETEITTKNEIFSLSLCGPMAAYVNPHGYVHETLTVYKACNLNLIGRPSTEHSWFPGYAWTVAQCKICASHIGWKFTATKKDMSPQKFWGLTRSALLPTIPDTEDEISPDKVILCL
T1 sequence (Q16531 whole entry partner): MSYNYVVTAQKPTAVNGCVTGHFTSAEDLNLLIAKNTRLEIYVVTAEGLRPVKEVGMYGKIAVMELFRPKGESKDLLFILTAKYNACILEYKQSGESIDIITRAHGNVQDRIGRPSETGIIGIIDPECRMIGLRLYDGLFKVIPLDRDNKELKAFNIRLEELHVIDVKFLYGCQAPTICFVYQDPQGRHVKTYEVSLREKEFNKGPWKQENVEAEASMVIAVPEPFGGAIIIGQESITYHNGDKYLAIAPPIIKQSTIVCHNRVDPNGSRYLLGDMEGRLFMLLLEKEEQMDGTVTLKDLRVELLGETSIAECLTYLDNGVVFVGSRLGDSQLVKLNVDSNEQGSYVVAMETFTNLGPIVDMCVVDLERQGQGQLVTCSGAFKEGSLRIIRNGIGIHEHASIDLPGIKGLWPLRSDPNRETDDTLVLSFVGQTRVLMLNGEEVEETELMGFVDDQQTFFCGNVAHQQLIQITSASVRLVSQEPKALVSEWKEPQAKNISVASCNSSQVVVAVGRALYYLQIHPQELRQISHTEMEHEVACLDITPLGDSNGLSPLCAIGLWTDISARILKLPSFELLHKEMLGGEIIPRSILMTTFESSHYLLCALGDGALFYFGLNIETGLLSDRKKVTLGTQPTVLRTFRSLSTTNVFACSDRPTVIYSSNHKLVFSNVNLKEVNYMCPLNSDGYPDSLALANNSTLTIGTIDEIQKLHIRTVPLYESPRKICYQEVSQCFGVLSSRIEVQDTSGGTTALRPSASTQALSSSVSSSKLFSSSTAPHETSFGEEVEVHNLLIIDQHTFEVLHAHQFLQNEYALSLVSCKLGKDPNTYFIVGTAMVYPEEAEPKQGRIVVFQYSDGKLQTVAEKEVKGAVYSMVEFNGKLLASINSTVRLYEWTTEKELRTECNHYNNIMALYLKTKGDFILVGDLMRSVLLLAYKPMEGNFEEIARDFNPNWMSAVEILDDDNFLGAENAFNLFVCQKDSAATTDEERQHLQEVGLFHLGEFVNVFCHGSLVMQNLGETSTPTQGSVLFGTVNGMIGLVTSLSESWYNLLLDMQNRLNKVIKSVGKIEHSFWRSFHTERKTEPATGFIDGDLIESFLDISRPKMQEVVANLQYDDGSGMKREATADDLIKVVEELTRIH
GSPT1, sequence (P15170 whole entry): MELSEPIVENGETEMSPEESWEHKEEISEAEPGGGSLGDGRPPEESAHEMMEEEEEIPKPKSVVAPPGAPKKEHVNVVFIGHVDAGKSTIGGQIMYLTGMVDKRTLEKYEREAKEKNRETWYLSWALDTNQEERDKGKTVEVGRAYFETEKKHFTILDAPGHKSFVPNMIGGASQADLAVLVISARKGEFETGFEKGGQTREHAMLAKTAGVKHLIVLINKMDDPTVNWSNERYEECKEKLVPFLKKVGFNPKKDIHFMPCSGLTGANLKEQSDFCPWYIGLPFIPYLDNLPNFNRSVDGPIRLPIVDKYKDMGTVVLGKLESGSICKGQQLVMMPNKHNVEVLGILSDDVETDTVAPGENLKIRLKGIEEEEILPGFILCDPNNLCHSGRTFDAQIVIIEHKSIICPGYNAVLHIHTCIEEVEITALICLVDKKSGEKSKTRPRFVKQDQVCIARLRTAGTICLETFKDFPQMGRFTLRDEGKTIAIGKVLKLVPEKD
GSPT1, sequence (Q96SW2 whole entry): as the sequence (Q96SW2 whole entry) above
GSPT1, sequence (Q16531 whole entry partner): as the sequence (Q16531 whole entry partner) above

For the compound `Cn1cnc(-c2ccc3c(c2)CN(C2CCC(=O)NC2=O)C3=O)c1-c1cccc(N2CCCCC2)c1` (stereo not shown) [Example 296], on CK1α (six hours incubation), the “CK1α Ymin” value is “E (E = >25-75% remaining)” and the DC50 is less than 25 nM. At GSPT1 (six hours incubation), the 50% degradation concentration (DC50) was not below 25 nM and the “GSPT1 Ymin” value is recorded as “F (F = >75-100% remaining)”.

Regarding `CCn1ncc(-c2ccc3c(c2)CN(C2CCC(=O)NC2=O)C3=O)c1-c1ccccc1` (stereo not shown) [Example 429, 3-(5-(1-ethyl-5-phenyl-1H-pyrazol-4-yl)-1-oxoisoindolin-2-yl)piperidine-2,6-dione], at CK1α (six hours), the “CK1α Ymin” value was “D (D = >10- 25% remaining)” and the DC50 is less than 25 nM. Also, on GSPT1 (six hours), the DC50 is less than 25 nM and the “GSPT1 Ymin” value is “F (F = >75-100% remaining)”.

For the compound `Cn1ncc(-c2ccc3c(c2)CN(C2CCC(=O)NC2=O)C3=O)c1-c1cccc(O)c1` (stereo not shown) [Example 219], at CK1α (six hours incubation), the “CK1α Ymin” value is listed as “C (C = 0-10% remaining)” and the DC50 was less than 25 nM. At GSPT1 (six hours incubation), the 50% degradation concentration (DC50) is not below 25 nM and the “GSPT1 Ymin” value is reported as “F (F = >75-100% remaining)”.

For the compound `Cn1ncc(-c2ccc3c(c2)CN(C2CCC(=O)NC2=O)C3=O)c1-c1cnc2sccc2c1` (stereo not shown) [Example 394], on CK1α (six hours), the “CK1α Ymin” value was “E (E = >25-75% remaining)” and the DC50 is not below 25 nM. Also, at GSPT1 (six hours), the half-maximal degradation concentration (DC50) was not below 25 nM and the “GSPT1 Ymin” value was “F (F = >75-100% remaining)”.

For `Cc1cc(-c2c(-c3ccc4c(c3)CN(C3CCC(=O)NC3=O)C4=O)cnn2C)ccn1` (stereo not shown) [Example 368], at CK1α (six hours incubation), the “CK1α Ymin” value was “E (E = >25-75% remaining)” and the DC50 is less than 25 nM. For the same compound, at GSPT1 (six hours incubation), the DC50 was less than 25 nM and the “GSPT1 Ymin” value is listed as “F (F = >75-100% remaining)”.

With `Cn1ncc(-c2ccc3c(c2)CN(C2CCC(=O)NC2=O)C3=O)c1-c1cnn2ccccc12` (stereo not shown) [Example 383], at CK1α (six hours), the “CK1α Ymin” value is “E (E = >25-75% remaining)” and the DC50 was less than 25 nM. For the same compound, at GSPT1 (six hours), the DC50 is not below 25 nM and the “GSPT1 Ymin” value is “F (F = >75-100% remaining)”.

On to `Cn1ncc(-c2ccc3c(c2)CN(C2CCC(=O)NC2=O)C3=O)c1-c1ccc(C#N)cc1F` (stereo not shown) [Example 225], for which, at CK1α (six hours incubation), the “CK1α Ymin” value is “E (E = >25-75% remaining)” and the half-maximal degradation concentration (DC50) was not below 25 nM. For the same compound, at GSPT1 (six hours incubation), the half-maximal degradation concentration (DC50) was not below 25 nM and the “GSPT1 Ymin” value is “F (F = >75-100% remaining)”.

Turning to `Cn1ncc(-c2ccc3c(c2)CN(C2CCC(=O)NC2=O)C3=O)c1-c1ccc(Cl)cc1F` (stereo not shown) [Example 79], at CK1α (six hours incubation), the “CK1α Ymin” value is on record as “E (E = >25-75% remaining)” and the 50% degradation concentration (DC50) is less than 25 nM. For the same compound, on GSPT1 (six hours incubation), the DC50 is not below 25 nM and the “GSPT1 Ymin” value was “F (F = >75-100% remaining)”.

Consider `Cn1cnc(-c2ccc3c(c2)CN(C2CCC(=O)NC2=O)C3=O)c1-c1ccc2nccn2c1` (stereo not shown) [Example 528], for which, at CK1α (six hours), the “CK1α Ymin” value is recorded as “D (D = >10- 25% remaining)” and the DC50 was not below 25 nM. Also, at GSPT1 (six hours), the half-maximal degradation concentration (DC50) was not below 25 nM and the “GSPT1 Ymin” value is recorded as “E (E = >25-75% remaining)”.

In the case of `COc1ccc(-c2c(-c3ccc4c(c3)CN(C3CCC(=O)NC3=O)C4=O)ncn2C)cc1F` (stereo not shown) [Example 194], on CK1α (six hours incubation), the “CK1α Ymin” value is recorded as “C (C = 0-10% remaining)” and the DC50 was less than 25 nM. In addition, on GSPT1 (six hours incubation), the DC50 is less than 25 nM and the “GSPT1 Ymin” value is reported as “E (E = >25-75% remaining)”.

With `Cn1nc(-c2ccc3c(c2)CN(C2CCC(=O)NC2=O)C3=O)nc1N1CCc2ccccc2C1` (stereo not shown) [Example 603, 3-(5-(5-(3,4-dihydroisoquinolin-2 (1H)-yl)-1-methyl-1H-1,2,4-triazol-3-yl)-1-oxoisoindolin-2-yl)piperidine-2,6-dione], on CK1α (six hours), the “CK1α Ymin” value is given as “D (D = >10- 25% remaining)” and the DC50 was less than 25 nM. Further, on GSPT1 (six hours), the 50% degradation concentration (DC50) was not below 25 nM and the “GSPT1 Ymin” value was “F (F = >75-100% remaining)”.

Consider `Cn1cnc(-c2ccc3c(c2)CN(C2CCC(=O)NC2=O)C3=O)c1-c1cnn(C2CC2)c1` (stereo not shown) [Example 326], for which, at CK1α (six hours incubation), the “CK1α Ymin” value is “C (C = 0-10% remaining)” and the DC50 was less than 25 nM. For the same compound, at GSPT1 (six hours incubation), the DC50 was less than 25 nM and the “GSPT1 Ymin” value is “F (F = >75-100% remaining)”.

For `Cn1cnc(-c2ccc3c(c2)CN(C2CCC(=O)NC2=O)C3=O)c1-c1cnc2c(ccn2C)c1` (stereo not shown) [Example 499], on CK1α (six hours), the “CK1α Ymin” value is recorded as “E (E = >25-75% remaining)” and the 50% degradation concentration (DC50) was less than 25 nM. On GSPT1 (six hours), the 50% degradation concentration (DC50) was not below 25 nM and the “GSPT1 Ymin” value is reported as “F (F = >75-100% remaining)”.

On to `Cn1ncc(-c2ccc3c(c2)CN(C2CCC(=O)NC2=O)C3=O)c1-c1ccc2c(c1)OC(F)(F)O2` (stereo not shown) [Example 542, 3-(5-(5-(2,2-difluorobenzo[d][1,3]dioxol-5-yl)-1-methyl-1H-pyrazol-4-yl)-1-oxoisoindolin-2-yl)piperidine-2,6-dione], for which, on CK1α (six hours), the “CK1α Ymin” value is “C (C = 0-10% remaining)” and the DC50 is less than 25 nM. Further, on GSPT1 (six hours), the half-maximal degradation concentration (DC50) was less than 25 nM and the “GSPT1 Ymin” value is “F (F = >75-100% remaining)”.

As for `COc1c(Cl)cccc1-c1c(-c2ccc3c(c2)CN(C2CCC(=O)NC2=O)C3=O)ncn1C` (stereo not shown) [Example 278], at CK1α (six hours incubation), the “CK1α Ymin” value is on record as “E (E = >25-75% remaining)” and the DC50 is less than 25 nM. On GSPT1 (six hours incubation), the half-maximal degradation concentration (DC50) is not below 25 nM and the “GSPT1 Ymin” value is reported as “F (F = >75-100% remaining)”.

On to `Cn1ncc(-c2ccc3c(c2)CN(C2CCC(=O)NC2=O)C3=O)c1-c1ccc(Cl)cc1` (stereo not shown) [Example 174], for which, on CK1α (six hours incubation), the “CK1α Ymin” value is listed as “D (D = >10- 25% remaining)” and the DC50 is less than 25 nM. At GSPT1 (six hours incubation), the DC50 was less than 25 nM and the “GSPT1 Ymin” value was “E (E = >25-75% remaining)”.

As for `Cc1cccc(-c2c(-c3ccc4c(c3)CN(C3CCC(=O)NC3=O)C4=O)cnn2C)c1` (stereo not shown) [Example 76], at CK1α (six hours incubation), the “CK1α Ymin” value is recorded as “D (D = >10- 25% remaining)” and the DC50 was less than 25 nM. At GSPT1 (six hours incubation), the half-maximal degradation concentration (DC50) is not below 25 nM and the “GSPT1 Ymin” value is “F (F = >75-100% remaining)”.

Turning to `Cc1cc(C#N)ccc1-c1c(-c2ccc3c(c2)CN(C2CCC(=O)NC2=O)C3=O)ncn1C` (stereo not shown) [Example 180], on CK1α (six hours incubation), the “CK1α Ymin” value is on record as “E (E = >25-75% remaining)” and the 50% degradation concentration (DC50) was not below 25 nM. Besides, at GSPT1 (six hours incubation), the half-maximal degradation concentration (DC50) is not below 25 nM and the “GSPT1 Ymin” value is recorded as “F (F = >75-100% remaining)”.

On to `Cn1ncc(-c2ccc3c(c2)CN(C2CCC(=O)NC2=O)C3=O)c1-c1cccc(C#N)c1` (stereo not shown) [Example 123], for which, on CK1α (six hours incubation), the “CK1α Ymin” value is “E (E = >25-75% remaining)” and the 50% degradation concentration (DC50) is less than 25 nM. Moreover, on GSPT1 (six hours incubation), the DC50 is not below 25 nM and the “GSPT1 Ymin” value was “F (F = >75-100% remaining)”.

For the compound `Cn1cc(-c2ccc3c(c2)CN(C2CCC(=O)NC2=O)C3=O)nc1-c1ccc(OC2CC2)cc1` (stereo not shown) [Example 581], on CK1α (six hours), the “CK1α Ymin” value is recorded as “C (C = 0-10% remaining)” and the DC50 is less than 25 nM. In addition, on GSPT1 (six hours), the half-maximal degradation concentration (DC50) was less than 25 nM and the “GSPT1 Ymin” value is listed as “F (F = >75-100% remaining)”.

On to `Cn1cnc(-c2ccc3c(c2)CN(C2CCC(=O)NC2=O)C3=O)c1-c1ccc2c(c1)CCCO2` (stereo not shown) [Example 514], for which, at CK1α (six hours), the “CK1α Ymin” value was “C (C = 0-10% remaining)” and the 50% degradation concentration (DC50) is less than 25 nM. Also, on GSPT1 (six hours), the half-maximal degradation concentration (DC50) was not below 25 nM and the “GSPT1 Ymin” value is “E (E = >25-75% remaining)”.

For the compound `Cn1ncc(-c2ccc3c(c2)CN(C2CCC(=O)NC2=O)C3=O)c1C1CC1` (stereo not shown) [Example 116], at CK1α (six hours incubation), the “CK1α Ymin” value was “E (E = >25-75% remaining)” and the DC50 was not below 25 nM. For the same compound, on GSPT1 (six hours incubation), the half-maximal degradation concentration (DC50) is not below 25 nM and the “GSPT1 Ymin” value is reported as “F (F = >75-100% remaining)”.

For the origin of these results see patent US20240158370A1, “CK1 alpha AND DUAL CK1 alpha / GSPT1 DEGRADING COMPOUNDS” (Innovo Therapeutics, Inc., priority 2022, published 2024).
